# Literature values as cited in PMC7670640 (Pharmacology Research & Perspectives, 2020).
# Conditions: prior terminated phase IIb clinical trial; cited from earlier work
compound,measurement,value
C=C(C)[C@@H]1CC[C@]2(NCCN3CCS(=O)(=O)CC3)CC[C@]3(C)[C@H](CC[C@@H]4[C@@]5(C)CC=C(c6ccc(C(=O)O)cc6)C(C)(C)[C@@H]5CC[C@]43C)[C@@H]12 [GSK3532795],GI intolerability,GI intolerability (predominantly abdominal pain and diarrhea)
